Laboratory results published in patent publication US10837968B2, “Photoactivatable voltage sensitive dyes” (THE REGENTS OF THE UNIVERSITY OF CALIFORNIA, priority 2014, dated 2020).
Where “and” joins values, the source holds several entries; their conditions need not be identical. Equal values may be shown once. Entries after “also recorded” stand apart in the source; their conditions may differ.

How the values were obtained:
[1] = Spectroscopic characterization of SPOT in PBS, pH 7, before and after UV illumination; format: physicochemical
Protocol: (§1) FIGS. 1A-1E. Illumination of SPOT dramatically increases fluorescence. Spectroscopic characterization of SPOT in PBS, pH 7. a) Absorbance profile of SPOT before (grey dotted trace) and after (green trace) illumination at 365 nm. The UV-vis spectrum of photoactivated SPOT is identical to a known standard of VF2.1.C1 (black trace). b) Emission spectrum of SPOT before (grey dotted trace) and after illumination (green trace) at 365 nm. c) HEK cells loaded with 200 nM SPOT prior to illumination. d) Cells from c) after illumination with 390 nm light for 30 seconds. e) Quantification of cellular fluorescence from cells stained with SPOT pre- and post-UV photoactivation. Illumination as in panel d) gives a 12-fold increase in fluorescence intensity (n=3).
FIG. 2. Characterization of SPOT photoproducts.
SPOT is readily available in one step from previously reported VoltageFluor compounds (Miller, et al., Natl Acad Sci USA, 2012, 109:2114). Alkylation of VF2.1.C1 with 2-nitro-4,5-dimethoxybenzylbromide in DMF provides SPOT as an analytically pure sample after purification via HPLC. Larger quantities are available through an alternate route in which the sulfonefluorescein head-group is first alkylated and then coupled to the phenylenevinylene molecular wire to give SPOT. We examined the photophysical behavior and characteristics of SPOT under simulated physiological conditions (PBS, pH 7). […] Emission from SPOT is minimal (FIG. 1B, grey trace), as reflected by its low fluorescence quantum yield. UV illumination of SPOT promptly delivers VF, as measured by complete recovery of absorbance profiles characteristic of VF2.1.C1 (FIG. 1A, green and black traces) and a 25-fold increase in fluorescence emission (FIG. 1B green trace).

[2] = tested on: human embryonic kidney cells (HEK 293); experiment: Cellular fluorescence of SPOT-stained HEK cells pre- and post-UV photoactivation; format: cell-based; conditions: HEK cells loaded with 200 nM SPOT; 390 nm light for 30 seconds; n=3
Protocol: as §1
We next turned our attention to assessing the properties of SPOT in living cells. […] Illumination with 390 nm (30 s) light results in an immediate increase in cell membrane-associated fluorescence characteristic of VoltageFluor staining (FIG. 1D). […] Membrane-associated fluorescence depends on prior UV illumination, as examination of areas of the same sample not exposed to light show very little cellular fluorescence. […] Following illumination, the cells stained with SPOT become bright and voltage-sensitive. […]

absorbance maximum (λmax / strong absorbance) ([1]; PBS, pH 7, before illumination): 400 nm
fluorescence quantum yield ([1]; PBS, pH 7, before illumination): low
increase in fluorescence emission after UV illumination ([1]; PBS, pH 7, illumination at 365 nm): 25 fold
SMILES: COc1cc(COc2cc3oc4cc(=O)c(Cl)cc-4c(-c4ccc(/C=C/c5ccc(/C=C/c6ccc(N(C)C)cc6)cc5)cc4S(=O)(=O)O)c3cc2Cl)c([N+](=O)[O-])cc1OC [SPOT, 2-(2,7-dichloro-6-((4,5-dimethoxy-2-nitrobenzyl)oxy)-3-oxo-3H-xanthen-9-yl)-5-((E)-4-((E)-4-(dimethylamino)styryl)styryl)benzenesulfonic acid]
photoproduct of irradiation (HPLC and mass spectrometry) ([1]; phosphate buffered saline, pH 7.0, 365 nm light): clean conversion of SPOT into VF2.1.C1; also recorded: cleanly gives VF2.1.C1
increase in mean cellular fluorescence intensity following irradiation [2]: 12±1.2 fold and 12 fold
